Key:
[1] = rat, in vivo, po, 1 mg/kg
Protocol: (§1) The breeding conditions of the experimental animals were as follows.
(§2) After the femoral region of the fixed rat was shaved, the blood-gathering was prepared by injecting a cannula. A drug-bentonite complex dispersion solution as an experimental group and a drug aqueous solution as a control group were administered using an oral zonde and then a certain amount of plasma was collected through the cannula for each predetermined time and the plasma drug concentration was measured.
(§3) The drug concentrations in the plasma samples were analyzed using a mass spectrometer.

[2] = in vivo; settings: Sprague-Dawley, rat, po, 1 mg/kg
Protocol: as §1, §2, §3

[3] = Drug release experiment using a semi-permeable membrane; assay type: physicochemical; settings: for elution rate: in both pH 1.2 and 7.8; for time within which most of the drug was released / drug released within initial 1 hour: semi-permeable membrane bag, cut-off 12,000 to 14,000 Da, 37° C.; for drug released within initial 1 hour: eluate pH 1.2 or pH 7.8; for release rate (membrane release amount of drug per unit time) of the drug solution relative to the drug-bentonite complex dispersion solution: semi-permeable membrane cut-off 12,000 to 14,000 Da
Protocol: The amount of the drug-bentonite complex was adjusted so that the drug final concentration inside the elution system became 1 μg/ml. At this time, as the eluate, a 0.1 N hydrochloric acid solution of pH 1.2 and a phosphate buffer of pH 7.8 were used and the elution was performed while maintaining 37° C. While the eluate outside the semi-permeable membrane was partially taken by time and the same amount of eluate was compensated, the experiment was conducted, and the drug concentration of the taken sample was analyzed using high performance liquid chromatography.

**Q.** Which “time within which the plasma concentration reached the maximum plasma concentration (Cmax)” value [1] does the source give for `COc1cc2nc(N3CCN(C(=O)C4COc5ccccc5O4)CC3)nc(N)c2cc1OC` (centres unmarked) [Doxazosin, doxazosin] here?
**A.** The value was 30 to 60 min.

**Q.** What about the AUC(0-t) [2] of the same compound?
**A.** The AUC(0-t) was 186 ± 54.7 ng·h/mL.

**Q.** And the Cmax [2]?
**A.** The Cmax was 67.3 ± 14.2 ng/mL.

**Q.** What about the Tmax [2] of the same compound?
**A.** The Tmax was 45 ± 15 min.

**Q.** And the bioavailability [2]?
**A.** The bioavailability was 100%.

**Q.** And the “release amount of the drug solution relative to the complex dispersion solution” value ([3]; after 4 hours of the test)?
**A.** Its value is “two times larger”.

**Q.** And the elution rate [3]?
**A.** Its elution rate is “fast elution rate”.

**Q.** What about the “time within which most of the drug was released” value [3] of the same compound?
**A.** The value was at most 4 h.

**Q.** And the “drug released within initial 1 hour” value [3]?
**A.** The value was at least 50%.

**Q.** And the “release rate (membrane release amount of drug per unit time) of the drug solution relative to the drug-bentonite complex dispersion solution” value [3]?
**A.** The value was “two times larger”.

**Q.** Which results are given for `COc1cc2nc(N3CCN(C(=O)c4ccco4)CC3)nc(N)c2cc1OC` [Prazosin, prazosin]?
**A.** AUC(0-t) [2]: 247 ± 45.1 ng·h/mL; Cmax [2]: 129 ± 36.2 ng/mL; Tmax [2]: 22.8 ± 7.8 min; bioavailability [2]: 100%; release amount of the drug solution relative to the complex dispersion solution ([3]; after 2 hours of the test, pH 1.2): two times larger; release amount of the drug solution relative to the complex dispersion solution ([3]; after 2 hours of the test, pH 7.8): significantly larger; elution rate [3]: fast elution rate; time within which most of the drug was released [3]: ≤ 4 h; drug released within initial 1 hour [3]: ≥ 70%; release rate (membrane release amount of drug per unit time) of the drug solution relative to the drug-bentonite complex dispersion solution [3]: larger
